In patent publication US11993599B2, “Therapeutic compounds” (Genentech, Inc., priority 2021, dated 2024):

Tests used:
BRM = BRM (Homo sapiens, UniProt P51531); assay: Immunofluorescence assay for BRM degradation in SW1573 cells; assay type: cell-based; set-up: treated overnight at 4° C. with either BRM primary antibody (Cell signaling Cat #11966) or BRG primary antibody; endogenous in cells; host or cells: SW1573; details: 20 hours incubation; for DC50: immunofluorescence mean nuclear signal, read-out: BRM IF Degradation IC50; for BRM IF Degradation Sinf (%): normalized to a known degrader control
Chain of BRM (P51531 whole entry): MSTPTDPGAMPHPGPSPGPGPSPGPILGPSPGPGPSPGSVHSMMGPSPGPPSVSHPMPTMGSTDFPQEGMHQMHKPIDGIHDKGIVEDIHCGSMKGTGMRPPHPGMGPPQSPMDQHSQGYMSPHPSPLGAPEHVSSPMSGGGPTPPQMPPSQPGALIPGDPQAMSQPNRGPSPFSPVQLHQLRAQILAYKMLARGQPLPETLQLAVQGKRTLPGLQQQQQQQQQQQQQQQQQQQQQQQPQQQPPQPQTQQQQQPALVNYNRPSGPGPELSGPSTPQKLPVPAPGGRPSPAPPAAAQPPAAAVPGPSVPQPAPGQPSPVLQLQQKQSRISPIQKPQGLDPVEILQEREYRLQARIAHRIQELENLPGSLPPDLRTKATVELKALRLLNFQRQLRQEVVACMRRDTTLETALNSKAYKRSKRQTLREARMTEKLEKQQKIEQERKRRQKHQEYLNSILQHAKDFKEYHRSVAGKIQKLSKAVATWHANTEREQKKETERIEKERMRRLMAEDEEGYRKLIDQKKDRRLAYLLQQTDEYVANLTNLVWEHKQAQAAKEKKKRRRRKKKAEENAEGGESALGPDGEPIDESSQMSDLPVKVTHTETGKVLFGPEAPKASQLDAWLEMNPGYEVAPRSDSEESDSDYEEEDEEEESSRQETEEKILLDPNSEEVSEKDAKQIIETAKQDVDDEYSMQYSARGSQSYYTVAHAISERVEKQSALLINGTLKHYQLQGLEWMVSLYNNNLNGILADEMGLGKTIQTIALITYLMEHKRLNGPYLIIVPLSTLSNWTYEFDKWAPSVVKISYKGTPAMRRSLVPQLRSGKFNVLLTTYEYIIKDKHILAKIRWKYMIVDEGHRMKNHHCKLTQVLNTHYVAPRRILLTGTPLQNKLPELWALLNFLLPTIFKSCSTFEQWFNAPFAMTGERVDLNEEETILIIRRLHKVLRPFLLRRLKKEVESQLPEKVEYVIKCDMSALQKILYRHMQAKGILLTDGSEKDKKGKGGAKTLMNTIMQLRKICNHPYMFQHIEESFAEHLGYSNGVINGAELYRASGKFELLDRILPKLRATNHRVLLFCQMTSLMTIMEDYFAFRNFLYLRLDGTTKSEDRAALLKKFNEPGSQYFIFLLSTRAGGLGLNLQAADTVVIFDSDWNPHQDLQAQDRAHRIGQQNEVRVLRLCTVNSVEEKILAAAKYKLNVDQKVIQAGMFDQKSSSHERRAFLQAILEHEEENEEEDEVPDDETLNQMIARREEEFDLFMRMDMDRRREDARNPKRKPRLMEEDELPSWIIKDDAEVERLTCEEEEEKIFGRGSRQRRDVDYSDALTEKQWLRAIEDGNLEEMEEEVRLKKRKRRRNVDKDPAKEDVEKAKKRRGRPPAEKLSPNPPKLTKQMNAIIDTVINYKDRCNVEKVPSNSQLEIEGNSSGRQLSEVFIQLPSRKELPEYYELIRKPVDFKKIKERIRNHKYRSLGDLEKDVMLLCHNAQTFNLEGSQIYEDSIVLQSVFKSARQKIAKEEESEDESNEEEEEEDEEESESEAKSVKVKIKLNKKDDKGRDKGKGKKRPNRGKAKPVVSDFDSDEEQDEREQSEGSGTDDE
Outline: (§1)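 After a 20 h incubation with test compound, SW1573 cells are fixed and stained for BRM or BRG1 plus Hoechst. Per-cell mean nuclear intensity, referenced to a degrader control, is fit concentration-dependently with unconstrained maximum for Dmax.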

BRG1 = target: T1, BRG1 (Homo sapiens, UniProt P51532); assay: Immunofluorescence assay for BRG1 degradation in SW1573 cells; assay type: cell-based; details: 20 hours incubation; for DC50: immunofluorescence mean nuclear signal, read-out: BRG1 IF Degradation IC50; for Dmax: SW1573, 20 h, read-out: BRG1 IF Degradation Sinf (%)
T1 construct: either BRM primary antibody (Cell signaling Cat #11966) or BRG primary antibody (Abcam, ab 110641); endogenous in cells; host or cells: SW1573
T1 sequence (P51532 whole entry): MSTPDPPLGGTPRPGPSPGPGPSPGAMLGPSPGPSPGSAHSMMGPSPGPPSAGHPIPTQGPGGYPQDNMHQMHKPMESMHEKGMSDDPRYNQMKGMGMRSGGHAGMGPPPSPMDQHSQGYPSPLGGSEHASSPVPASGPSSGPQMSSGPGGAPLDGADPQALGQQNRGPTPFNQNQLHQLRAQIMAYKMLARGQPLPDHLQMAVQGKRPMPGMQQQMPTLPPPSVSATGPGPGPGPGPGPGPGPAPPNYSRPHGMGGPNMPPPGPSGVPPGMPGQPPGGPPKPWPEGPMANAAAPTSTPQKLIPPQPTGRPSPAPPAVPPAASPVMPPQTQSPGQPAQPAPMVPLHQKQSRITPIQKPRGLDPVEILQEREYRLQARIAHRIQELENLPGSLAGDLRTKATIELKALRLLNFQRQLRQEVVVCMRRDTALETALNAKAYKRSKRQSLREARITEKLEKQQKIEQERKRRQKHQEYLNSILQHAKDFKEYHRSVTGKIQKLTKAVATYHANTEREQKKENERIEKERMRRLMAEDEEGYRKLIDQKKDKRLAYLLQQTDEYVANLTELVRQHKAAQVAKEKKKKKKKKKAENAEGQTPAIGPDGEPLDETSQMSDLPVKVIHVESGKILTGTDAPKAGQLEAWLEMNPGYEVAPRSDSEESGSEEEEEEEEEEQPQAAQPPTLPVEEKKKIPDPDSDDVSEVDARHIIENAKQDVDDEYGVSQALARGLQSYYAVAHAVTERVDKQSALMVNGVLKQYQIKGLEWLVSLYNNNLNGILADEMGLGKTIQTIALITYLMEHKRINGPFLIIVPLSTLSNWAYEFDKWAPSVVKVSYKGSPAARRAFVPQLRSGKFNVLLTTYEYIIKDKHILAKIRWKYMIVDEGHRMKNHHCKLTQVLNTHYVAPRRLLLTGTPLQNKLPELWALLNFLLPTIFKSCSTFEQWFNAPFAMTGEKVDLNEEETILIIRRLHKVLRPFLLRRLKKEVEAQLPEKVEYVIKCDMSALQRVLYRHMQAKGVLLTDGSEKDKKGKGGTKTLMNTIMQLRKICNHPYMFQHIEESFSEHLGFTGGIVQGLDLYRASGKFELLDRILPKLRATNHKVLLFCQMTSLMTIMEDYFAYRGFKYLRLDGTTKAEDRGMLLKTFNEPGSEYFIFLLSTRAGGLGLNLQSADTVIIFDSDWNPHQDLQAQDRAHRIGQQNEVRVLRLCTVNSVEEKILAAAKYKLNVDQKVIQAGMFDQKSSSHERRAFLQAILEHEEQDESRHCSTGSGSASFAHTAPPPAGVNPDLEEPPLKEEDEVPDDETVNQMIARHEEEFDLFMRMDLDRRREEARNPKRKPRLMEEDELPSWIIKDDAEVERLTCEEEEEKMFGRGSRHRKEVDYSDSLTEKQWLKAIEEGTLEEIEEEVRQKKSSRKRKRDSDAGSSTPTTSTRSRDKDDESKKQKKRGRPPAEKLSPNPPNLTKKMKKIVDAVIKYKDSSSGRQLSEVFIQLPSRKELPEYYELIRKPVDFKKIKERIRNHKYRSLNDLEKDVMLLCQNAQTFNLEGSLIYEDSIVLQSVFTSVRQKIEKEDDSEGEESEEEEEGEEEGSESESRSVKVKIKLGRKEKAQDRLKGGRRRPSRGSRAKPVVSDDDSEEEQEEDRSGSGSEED
Outline: as §1

[1] = normalized to a known degrader control

C[C@H]1CCN(CC#Cc2cc(N3C4CCC3CN(c3cc(-c5ccccc5O)nnc3N)C4)ccn2)C1 [Compound 75, 2-(6-amino-5-(8-(2-(3-((S)-3-methylpyrrolidin-1-yl)prop-1-yn-1-yl)pyridin-4-yl)-3,8-diazabicyclo[3.2.1]octan-3-yl)pyridazin-3-yl)phenol]
DC50 (BRM): < 0.01 µM
BRM IF Degradation Sinf (%) (BRM): E (E indicates −30%-−70%)
DC50 (BRG1): < 0.01 µM
Dmax (BRG1; [1]): 30 to 70%

N#CC1CCN(CC#Cc2cc(N3C4CCC3CN(c3cc(-c5ccccc5O)nnc3N)C4)ccn2)CC1 [Compound 139, 1-[3-[4-[3-[3-amino-6-(2-hydroxyphenyl)pyridazin-4-yl]-3,8-diazabicyclo[3.2.1]octan-8-yl]-2-pyridyl]prop-2-ynyl]piperidine-4-carbonitrile]
DC50 (BRM): < 0.01 µM
BRM IF Degradation Sinf (%) (BRM): E (E indicates −30%-−70%)
DC50 (BRG1): 0.01 to 0.1 µM
Dmax (BRG1; [1]): 0 to 30%

Nc1nnc(-c2ccccc2O)cc1N1CC2CCC(C1)N2c1ccnc(C#CCN2C3CCC2(CO)CC3)c1 [Compound 121, 2-[6-amino-5-[8-[2-[3-[1-(hydroxymethyl)-7-azabicyclo[2.2.1]heptan-7-yl]prop-1-ynyl]-4-pyridyl]-3,8-diazabicyclo[3.2.1]octan-3-yl]pyridazin-3-yl]phenol]
DC50 (BRM): < 0.01 µM
BRM IF Degradation Sinf (%) (BRM): E (E indicates −30%-−70%)
DC50 (BRG1): > 0.1 µM
Dmax (BRG1; [1]): 30 to 70%

Nc1nnc(-c2ccccc2O)cc1N1CC2CCC(C1)N2c1ccnc(C#CCN2CCC[C@]23CCNC3)c1 [Compound 165, 2-[6-amino-5-[8-[2-[3-[(5R)-1,7-diazaspiro[4.4]nonan-1-yl]prop-1-ynyl]-4-pyridyl]-3,8-diazabicyclo[3.2.1]octan-3-yl]pyridazin-3-yl]phenol]
DC50 (BRM): > 0.1 µM
BRM IF Degradation Sinf (%) (BRM): E (E indicates −30%-−70%)
DC50 (BRG1): > 0.1 µM

Nc1nnc(-c2ccccc2O)cc1N1CC2CCC(C1)N2c1ccnc(C#CCN2C3CCCC2COC3)c1 [Compound 111, 2-[6-amino-5-[8-[2-[3-(3-oxa-9-azabicyclo[3.3.1]nonan-9-yl)prop-1-ynyl]-4-pyridyl]-3,8-diazabicyclo[3.2.1]octan-3-yl]pyridazin-3-yl]phenol]
DC50 (BRM): < 0.01 µM
BRM IF Degradation Sinf (%) (BRM): E (E indicates −30%-−70%)
DC50 (BRG1): < 0.01 µM
Dmax (BRG1; [1]): 0 to 30%

CC[C@H]1COCCN1CC#Cc1cc(N2C3CCC2CN(c2cc(-c4ccccc4O)nnc2N)C3)ccn1 [Compound 64, 2-[6-amino-5-[8-[2-[3-[(3S)-3-ethylmorpholin-4-yl]prop-1-ynyl]-4-pyridyl]-3,8-diazabicyclo[3.2.1]octan-3-yl]pyridazin-3-yl]phenol]
DC50 (BRM): 0.01 to 0.1 µM
BRM IF Degradation Sinf (%) (BRM): E (E indicates −30%-−70%)
DC50 (BRG1): 0.01 to 0.1 µM
Dmax (BRG1; [1]): 0 to 30%

Nc1nnc(-c2ccccc2O)cc1N1CC2CCC(C1)N2c1ccnc(C#CCN2CCOC3CCNCC32)c1 (centres unmarked) [Compound 147, 2-[5-[8-[2-[3-(2,3,4a,5,6,7,8,8a-octahydropyrido[4,3-b][l,4]oxazin-4-yl)prop-1-ynyl]-4-pyridyl]-3,8-diazabicyclo[3.2.1]octan-3-yl]-6-amino-pyridazin-3-yl]phenol]
DC50 (BRM): > 0.1 µM
BRM IF Degradation Sinf (%) (BRM): E (E indicates −30%-−70%)
DC50 (BRG1): > 0.1 µM
Dmax (BRG1; [1]): 30 to 70%

CO[C@H]1CCN(CC#Cc2cc(N3C4CCC3CN(c3cc(-c5ccccc5O)nnc3N)C4)ccn2)C1 [Compound 128, 2-[6-amino-5-[8-[2-[3-[(3S)-3-methoxypyrrolidin-1-yl]prop-1-ynyl]-4-pyridyl]-3,8-diazabicyclo[3.2.1]octan-3-yl]pyridazin-3-yl]phenol]
DC50 (BRM): 0.01 to 0.1 µM
BRM IF Degradation Sinf (%) (BRM): F (F indicates −71%-−120%)
DC50 (BRG1): < 0.01 µM
Dmax (BRG1; [1]): 30 to 70%

CC1CCN1CC#Cc1cc(N2C3CCC2CN(c2cc(-c4ccccc4O)nnc2N)C3)ccn1 (centres unmarked) [Compound 184, 2-[6-amino-5-[8-[2-[3-(2-methylazetidin-1-yl)prop-1-ynyl]-4-pyridyl]-3,8-diazabicyclo[3.2.1]octan-3-yl]pyridazin-3-yl]phenol]
DC50 (BRM): < 0.01 µM
BRM IF Degradation Sinf (%) (BRM): E (E indicates −30%-−70%)
DC50 (BRG1): < 0.01 µM
Dmax (BRG1; [1]): 30 to 70%

Nc1nnc(-c2ccccc2O)cc1N1CC2CCC(C1)N2c1ccnc(C#CCN2CCC3OCCC3C2)c1 (centres unmarked) [Compound 145, 2-[5-[8-[2-[3-(3,3a,4,6,7,7a-hexahydro-2H-furo[3,2-c]pyridin-5-yl)prop-1-ynyl]-4-pyridyl]-3,8-diazabicyclo[3.2.1]octan-3-yl]-6-amino-pyridazin-3-yl]phenol]
DC50 (BRM): < 0.01 µM
BRM IF Degradation Sinf (%) (BRM): E (E indicates −30%-−70%)
DC50 (BRG1): < 0.01 µM
Dmax (BRG1; [1]): 0 to 30%

Nc1nnc(-c2ccccc2O)cc1N1CC2CCC(C1)N2c1ccnc(C#CCN2CC3CC2CC3(F)F)c1 (centres unmarked) [Compound 143, 2-[6-amino-5-[8-[2-[3-(5,5-difluoro-2-azabicyclo[2.2.1]heptan-2-yl)prop-1-ynyl]-4-pyridyl]-3,8-diazabicyclo[3.2.1]octan-3-yl]pyridazin-3-yl]phenol]
DC50 (BRM): < 0.01 µM
BRM IF Degradation Sinf (%) (BRM): E (E indicates −30%-−70%)
DC50 (BRG1): < 0.01 µM
Dmax (BRG1; [1]): 0 to 30%

CC1CN(CC#Cc2cc(N3C4CCC3CN(c3cc(-c5ccccc5O)nnc3N)C4)ccn2)CCC(F)(F)C1 (centres unmarked) [Compound 212, 2-[6-amino-5-[8-[2-[3-(5,5-difluoro-3-methyl-azepan-1-yl)prop-1-ynyl]-4-pyridyl]-3,8-diazabicyclo[3.2.1]octan-3-yl]pyridazin-3-yl]phenol]
DC50 (BRM): < 0.01 µM
BRM IF Degradation Sinf (%) (BRM): F (F indicates −71%-−120%)
DC50 (BRG1): < 0.01 µM
Dmax (BRG1; [1]): 71 to 120%

Nc1nnc(-c2ccccc2O)cc1N1CC2CCC(C1)N2c1ccnc(C#CCN2CC(C3CCOC3)C2)c1 (centres unmarked) [Compound 157, 2-[6-amino-5-[8-[2-[3-(3-tetrahydrofuran-3-ylazetidin-1-yl)prop-1-ynyl]-4-pyridyl]-3,8-diazabicyclo[3.2.1]octan-3-yl]pyridazin-3-yl]phenol]
DC50 (BRM): 0.01 to 0.1 µM
BRM IF Degradation Sinf (%) (BRM): E (E indicates −30%-−70%)
DC50 (BRG1): 0.01 to 0.1 µM
Dmax (BRG1; [1]): 30 to 70%

CS(=O)(=O)N1CCC2(CN(CC#Cc3cc(N4C5CCC4CN(c4cc(-c6ccccc6O)nnc4N)C5)ccn3)C2)C1 [Compound 236, 2-[6-amino-5-[8-[2-[3-(7-methylsulfonyl-2,7-diazaspiro[3.4]octan-2-yl)prop-1-ynyl]-4-pyridyl]-3,8-diazabicyclo[3.2.1]octan-3-yl]pyridazin-3-yl]phenol]
DC50 (BRM): > 0.1 µM
BRM IF Degradation Sinf (%) (BRM): F (F indicates −71%-−120%)
DC50 (BRG1): 0.01 to 0.1 µM
Dmax (BRG1; [1]): 0 to 30%

CC1CCN(CC#Cc2cc(N3C4CCC3CN(c3cc(-c5ccccc5O)nnc3N)C4)ccn2)CCC1O (centres unmarked) [Compound 190, 1-[3-[4-[3-[3-amino-6-(2-hydroxyphenyl)pyridazin-4-yl]-3,8-diazabicyclo[3.2.1]octan-8-yl]-2-pyridyl]prop-2-ynyl]-5-methyl-azepan-4-ol]
DC50 (BRM): < 0.01 µM
BRM IF Degradation Sinf (%) (BRM): F (F indicates −71%-−120%)
DC50 (BRG1): < 0.01 µM
Dmax (BRG1; [1]): 30 to 70%

Nc1nnc(-c2ccccc2O)cc1N1CC2CCC(C1)N2c1ccnc(C#CCN2CCCOCC23CC3)c1 [Compound 110, 2-[6-amino-5-[8-[2-[3-(8-oxa-4-azaspiro[2.6]nonan-4-yl)prop-1-ynyl]-4-pyridyl]-3,8-diazabicyclo[3.2.1]octan-3-yl]pyridazin-3-yl]phenol]
DC50 (BRM): < 0.01 µM
BRM IF Degradation Sinf (%) (BRM): E (E indicates −30%-−70%)
DC50 (BRG1): > 0.1 µM

Nc1nnc(-c2ccccc2O)cc1N1CC2CCC(C1)N2c1ccnc(C#CCN2CC[C@@]3(O)C[C@H]3C2)c1 [Compound 117, (1S,6S)-3-[3-[4-[3-[3-amino-6-(2-hydroxyphenyl)pyridazin-4-yl]-3,8-diazabicyclo[3.2.1]octan-8-yl]-2-pyridyl]prop-2-ynyl]-3-azabicyclo[4.1.0]heptan-6-ol]
DC50 (BRM): 0.01 to 0.1 µM
BRM IF Degradation Sinf (%) (BRM): E (E indicates −30%-−70%)
DC50 (BRG1): 0.01 to 0.1 µM
Dmax (BRG1; [1]): 0 to 30%

Nc1nnc(-c2ccccc2O)cc1N1CC2CCC(C1)N2c1ccnc(C#CCN2CC3CCC(C3)C2)c1 [Compound 93, 2-[6-amino-5-[8-[2-[3-(3-azabicyclo[3.2.1]octan-3-yl)prop-1-ynyl]-4-pyridyl]-3,8-diazabicyclo[3.2.1]octan-3-yl]pyridazin-3-yl]phenol]
DC50 (BRM): < 0.01 µM
BRM IF Degradation Sinf (%) (BRM): E (E indicates −30%-−70%)
DC50 (BRG1): > 0.1 µM

Nc1nnc(-c2ccccc2O)cc1N1CC2CCC(C1)N2c1ccnc(C#CCN2CCC23CCOC3)c1 (centres unmarked) [Compound 69, 2-[6-amino-5-[8-[2-[3-(7-oxa-1-azaspiro[3.4]octan-1-yl)prop-1-ynyl]-4-pyridyl]-3,8-diazabicyclo[3.2.1]octan-3-yl]pyridazin-3-yl]phenol]
DC50 (BRM): < 0.01 µM
BRM IF Degradation Sinf (%) (BRM): F (F indicates −71%-−120%)
DC50 (BRG1): < 0.01 µM
BRG1 IF Degradation Sinf (%) (BRG1; [1]): E (E indicates −30%-−70%)

Nc1nnc(-c2ccccc2O)cc1N1CC2CCC(C1)N2c1ccnc(C#CCN2CCC(N3CCOCC3)C2)c1 (centres unmarked) [Compound 80, 2-[6-amino-5-[8-[2-[3-(3-morpholinopyrrolidin-1-yl)prop-1-ynyl]-4-pyridyl]-3,8-diazabicyclo[3.2.1]octan-3-yl]pyridazin-3-yl]phenol]
DC50 (BRM): 0.01 to 0.1 µM
BRM IF Degradation Sinf (%) (BRM): E (E indicates −30%-−70%)
DC50 (BRG1): < 0.01 µM
Dmax (BRG1; [1]): 0 to 30%
